Patent US8461083B2, “Herbicidal compounds” (Syngenta Limited, priority 2008, dated 2013)

What was measured:
[1] = system: Alopecurus myosuroides (ALOMY); assay: Post-emergence herbicidal glasshouse test; assay type: in vivo; conditions: Alopecurus myosuroides, 312 h, post-emergence (sprayed after 8 days cultivation), evaluated after 13 days, 100=total damage to plant, 0=no damage to plant, read-out: POST Application ALOMY, damage to plant
Outline: (§1)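 Rates of 1000 g/ha are applied as an acetone/water (50:50) spray with 0.5% Tween 20 to soil-sown pots, pre-emergence at day 1 or post-emergence at day 8. Percent damage is assessed after 13 days.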

[2] = system: Amaranthus retoflexus (AMARE); assay: Post-emergence herbicidal glasshouse test; assay type: in vivo; conditions: Amaranthus retroflexus, 312 h, post-emergence (sprayed after 8 days cultivation), evaluated after 13 days, 100=total damage to plant, 0=no damage to plant, read-out: POST Application AMARE, damage to plant
Outline: as §1

[3] = system: Echinochloa crus-galli (ECHCG); assay: Post-emergence herbicidal glasshouse test; assay type: in vivo; conditions: Echinochloa crus-galli, 312 h, post-emergence (sprayed after 8 days cultivation), evaluated after 13 days, 100=total damage to plant, 0=no damage to plant, read-out: POST Application ECHCG, damage to plant
Outline: (§2)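 Seeds were sown in standard soil in pots and sprayed 1 day after sowing (pre-emergence) or after 8 days' cultivation (post-emergence). Compounds were applied at 1000 g/ha in acetone/water (50:50) with 0.5% Tween 20. Plants were kept at 24/16 °C day/night, 14 h light, 65% humidity, and damage was scored after 13 days (0 = none, 100 = total).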

Setaria faberi (SETFA) [4] = assay: Post-emergence herbicidal glasshouse test; assay type: in vivo; conditions: Setaria faberi, 312 h, post-emergence (sprayed after 8 days cultivation), evaluated after 13 days, 100=total damage to plant, 0=no damage to plant, read-out: POST Application SETFA, damage to plant
Outline: as §1

Solanum nigrum (SOLNI) [5] = assay: Post-emergence herbicidal glasshouse test; assay type: in vivo; conditions: Solanum nigrum, 312 h, post-emergence (sprayed after 8 days cultivation), evaluated after 13 days, 100=total damage to plant, 0=no damage to plant, read-out: POST Application SOLNI, damage to plant
Outline: as §1

[6] = system: Alopecurus myosuroides (ALOMY); assay: Pre-emergence herbicidal glasshouse test; assay type: in vivo; conditions: Alopecurus myosuroides, 312 h, pre-emergence (sprayed after one day cultivation), evaluated after 13 days, 100=total damage to plant, 0=no damage to plant, read-out: PRE Application ALOMY, damage to plant
Outline: as §1

[7] = system: Echinochloa crus-galli (ECHCG); assay: Pre-emergence herbicidal glasshouse test; assay type: in vivo; conditions: Echinochloa crus-galli, 312 h, pre-emergence (sprayed after one day cultivation), evaluated after 13 days, 100=total damage to plant, 0=no damage to plant, read-out: PRE Application ECHCG, damage to plant
Outline: as §2

Setaria faberi (SETFA) [8] = assay: Pre-emergence herbicidal glasshouse test; assay type: in vivo; conditions: Setaria faberi, 312 h, pre-emergence (sprayed after one day cultivation), evaluated after 13 days, 100=total damage to plant, 0=no damage to plant, read-out: PRE Application SETFA, damage to plant
Outline: as §1

Solanum nigrum (SOLNI) [9] = assay: Pre-emergence herbicidal glasshouse test; assay type: in vivo; conditions: Solanum nigrum, 312 h, pre-emergence (sprayed after one day cultivation), evaluated after 13 days, 100=total damage to plant, 0=no damage to plant, read-out: PRE Application SOLNI, damage to plant
Outline: as §1

In the case of `COCC(F)(F)c1nc2nc(C)c(F)cc2cc1C(=O)C1C(=O)C2CCC(C2)C1=O` (stereo not shown) [Compound 3.13, 3-[6-fluoro-2-(2-methoxy-1,1-difluoroethyl)-7-methyl [1,8]-naphthyridine-3-carbonyl]-bicyclo[3.2.1]octane-2,4-dione], the pest or weed control at 1000 g/ha [1] is reported as 40%, the pest or weed control at 1000 g/ha [2] is reported as 70% and the pest or weed control at 1000 g/ha [3] is reported as 80%. For the same molecule, the pest or weed control at 1000 g/ha (Setaria faberi (SETFA) [4]) was 80%, the pest or weed control at 1000 g/ha (Solanum nigrum (SOLNI) [5]) was 70% and the pest or weed control at 1000 g/ha [6] was 10%. For the same molecule, the pest or weed control at 1000 g/ha [7] was 100%, the pest or weed control at 1000 g/ha (Setaria faberi (SETFA) [8]) was 80% and the pest or weed control at 1000 g/ha (Solanum nigrum (SOLNI) [9]) was 80%. For the same molecule, the melting point was 177 to 180 °C.
